ChEMBL document CHEMBL6134843, “HDAC11 Inhibition as a Potential Therapeutic Strategy for AML: Target Identification, Lead Discovery, Antitumor Potency, and Mechanism Investigation” (J Med Chem, 2025)
Activity calls are given as the source filed them. The calls are words filed in the database; no cut-off is given here.

Key:
Histone deacetylase 4 = Histone deacetylase 4 (Homo sapiens, UniProt P56524); test: Inhibition of N-terminal GST-tagged C-terminal His-tagged human HDAC4 (627 to 1084 end residues) expressed in baculovirus expression system in Sf9 cells using Boc-Lys-(trifluoroacetyl)-AMC as substrate preincubated with enzyme for 1 hr followed by substrate addition and measured after 30 mins by fluorescence analysis
MOLM-13 = test: Antiproliferative activity against human MOLM-13 cells assessed as cell growth inhibition incubated for 2 days by CCK-8 assay; settings: MOLM-13, 48 h
OCI-AML-3 = test: Antiproliferative activity against human OCI-AML-3 cells assessed as cell growth inhibition incubated for 2 days by CCK-8 assay; settings: OCI-AML-3, 48 h
U-937 [1] = test: Cytotoxicity against human U-937 cells assessed as cell growth inhibition at 5 uM incubated for 24 to 48 hrs by cell counting assay; format: functional, cell-based; settings: time 24-48 hrs
OCI-AML2 [2] = test: Cytotoxicity against human OCI-AML2 cells assessed as cell growth inhibition at 5 uM incubated for 24 to 48 hrs by cell counting assay; format: functional, cell-based; settings: time 24-48 hrs
[3] = Induction of cell apoptosis in human OCI-AML-3 cells at 5 uM incubated for 48 hrs by Annexin V/DAPI staining based flow cytometry analysis relative to control; format: functional
U-937 [4] = test: Induction of cell differentiation in human U-937 cells assessed as increase in CD11b expression at 5 uM incubated for 48 hrs by flow cytometry analysis; format: functional, cell-based
OCI-AML2 [5] = test: Induction of cell differentiation in human OCI-AML2 cells assessed as increase in CD11b expression at 5 uM incubated for 48 hrs by flow cytometry analysis; format: functional, cell-based
U-937 [6] = test: Effect on TP53 gene expression in human U-937 cells at 10 uM incubated for 48 hrs by RT-qPCR; format: functional, cell-based
U-937 [7] = test: Effect on WT1 gene expression in human U-937 cells at 10 uM incubated for 48 hrs by RT-qPCR; format: functional, cell-based
U-937 [8] = test: Effect on CCND2 gene expression in human U-937 cells at 10 uM incubated for 48 hrs by RT-qPCR; format: functional, cell-based
U-937 [9] = test: Effect on CDK6 gene expression in human U-937 cells at 10 uM incubated for 48 hrs by RT-qPCR; format: functional, cell-based
U-937 [10] = test: Induction of ferroptosis in human U-937 cells assessed as increase in cellular ROS level incubated for 48 hrs by DCFH-DA staining based flow cytometry analysis; format: functional, cell-based; settings: dose 2.5-10 µM
OCI-AML2 [11] = test: Induction of ferroptosis in human OCI-AML2 cells assessed as increase in lipid peroxidation level incubated for 48 hrs by C11-BODIPY 581/591 staining based flow cytometry analysis; format: functional, cell-based; settings: dose 2.5-10 µM
U-937 [12] = test: Induction of ferroptosis in human U-937 cells assessed as increase in ROS generation at 5 uM incubated for 48 hrs in presence of ferrostatin-1 by DCFH-DA staining based flow cytometry analysis; format: functional, cell-based
OCI-AML2 [13] = test: Induction of ferroptosis in human OCI-AML2 cells assessed as increase in lipid peroxidation accumulation at 5 uM incubated for 48 hrs in presence of ferrostatin-1 by C11-BODIPY 581/591 staining based flow cytometry analysis; format: functional, cell-based
OCI-AML2 [14] = test: Induction of ferroptosis in human OCI-AML2 cells assessed as increase in ROS generation at 5 uM incubated for 48 hrs in presence of ferrostatin-1 by DCFH-DA staining based flow cytometry analysis; format: functional, cell-based
U-937 [15] = test: Induction of ferroptosis in human U-937 cells assessed as increase in malondialdehyde level at 5 uM incubated for 48 hrs; format: functional, cell-based
OCI-AML2 [16] = test: Induction of ferroptosis in human OCI-AML2 cells assessed as increase in malondialdehyde level at 5 uM incubated for 48 hrs; format: functional, cell-based
[17] = system: Acute myeloid leukemic cell; test: Induction of ferroptosis in human Acute myeloid leukemic cells assessed as upregulation of TF mRNA level by RT-qPCR analysis; format: functional, cell-based
[18] = system: Acute myeloid leukemic cell; test: Induction of ferroptosis in human Acute myeloid leukemic cells assessed as upregulation of TFRC mRNA level by RT-qPCR analysis; format: functional, cell-based
[19] = system: Acute myeloid leukemic cell; test: Induction of ferroptosis in human Acute myeloid leukemic cells assessed as upregulation of HMOX1 protein level at 2.5 to 10 uM by Western blot analysis; format: functional, cell-based; settings: dose 2.5-10 µM
[20] = system: Acute myeloid leukemic cell; test: Induction of ferroptosis in human Acute myeloid leukemic cells assessed as upregulation of FTH1 protein level at 2.5 to 10 uM by Western blot analysis; format: functional, cell-based; settings: dose 2.5-10 µM
U-937 [21] = test: Induction of ferroptosis in human U-937 cells assessed as increase in ferrous ion accumulation at 100 uM incubated for 48 hrs by RhoNox-1 staining based flow cytometry analysis; format: functional, cell-based
OCI-AML2 [22] = test: Induction of ferroptosis in human OCI-AML2 cells assessed as increase in ferrous ion accumulation at 100 uM incubated for 48 hrs by RhoNox-1 staining based flow cytometry analysis; format: functional, cell-based
[23] = system: Acute myeloid leukemic cell; test: Induction of ferroptosis in human Acute myeloid leukemic cells assessed as downregulation of GPX4 level by Western blot analysis; format: functional, cell-based
U-937 [24] = test: Antiproliferative activity in human U-937 cells assessed as suppression of cell growth at 10 uM in presence of Zinc protoporphyrin by trypan blue staining based analysis; format: functional
[25] = target: Keap1/Nrf2 (Homo sapiens) (UniProt Q16236+Q14145); test: Activation of Keap1-Nrf2 signaling pathway in human U-937 cells assessed as upregulation of HMOX1 at 5 uM in presence of K67 by Western blot analysis; format: cell-based
[26] = Half life in ICR(CD-1) mouse at 5 mg/kg, iv treated up to 24 hrs by LC-MS/MS analysis; format: ADME, organism-based; settings: in vivo
[27] = Cmax in ICR(CD-1) mouse at 50 mg/kg, ip treated up to 24 hrs by LC-MS/MS analysis; format: ADME, organism-based; settings: in vivo
[28] = MRT (0 to infinity) in ICR(CD-1) mouse at 5 mg/kg, iv treated up to 24 hrs by LC-MS/MS analysis; format: ADME, organism-based; settings: in vivo
[29] = MRT (0 to infinity) in ICR(CD-1) mouse at 50 mg/kg, ip treated up to 24 hrs by LC-MS/MS analysis; format: ADME, organism-based; settings: in vivo
[30] = Antitumor activity against mouse MLL-AF9 cells allografted in female C57BL/6 mouse model assessed as GFP positive leukemic cells in peripheral blood at 50 mg/kg, ip administered once daily for 26 days by FITC staining based analysis (reference value: 30.6 %); format: functional; settings: time 26 day
MLL-AF9 [31] = test: Antitumor activity against mouse MLL-AF9 cells allografted in female C57BL/6 mouse model assessed as reduction in splenomegaly at 50 mg/kg, ip administered once daily for 23 days; format: functional, organism-based; settings: time 23.0 day
MLL-AF9 [32] = test: Antitumor activity against mouse MLL-AF9 cells allografted in female C57BL/6 mouse model assessed as reduction in hepatomegaly at 50 mg/kg, ip administered once daily for 23 days in presence of cytarabine; format: functional, organism-based; settings: time 23.0 day
[33] = Toxicity in female C57BL/6 mouse assessed as increase in survival rate at 50 mg/kg, ip administered once daily by Kaplan Mayer survival analysis; format: organism-based; settings: in vivo
[34] = Toxicity in female C57BL/6 mouse model assessed as change in body weight at 50 mg/kg, ip administered once daily; format: organism-based; settings: in vivo

Sequence of Histone deacetylase 4 (P56524 whole entry): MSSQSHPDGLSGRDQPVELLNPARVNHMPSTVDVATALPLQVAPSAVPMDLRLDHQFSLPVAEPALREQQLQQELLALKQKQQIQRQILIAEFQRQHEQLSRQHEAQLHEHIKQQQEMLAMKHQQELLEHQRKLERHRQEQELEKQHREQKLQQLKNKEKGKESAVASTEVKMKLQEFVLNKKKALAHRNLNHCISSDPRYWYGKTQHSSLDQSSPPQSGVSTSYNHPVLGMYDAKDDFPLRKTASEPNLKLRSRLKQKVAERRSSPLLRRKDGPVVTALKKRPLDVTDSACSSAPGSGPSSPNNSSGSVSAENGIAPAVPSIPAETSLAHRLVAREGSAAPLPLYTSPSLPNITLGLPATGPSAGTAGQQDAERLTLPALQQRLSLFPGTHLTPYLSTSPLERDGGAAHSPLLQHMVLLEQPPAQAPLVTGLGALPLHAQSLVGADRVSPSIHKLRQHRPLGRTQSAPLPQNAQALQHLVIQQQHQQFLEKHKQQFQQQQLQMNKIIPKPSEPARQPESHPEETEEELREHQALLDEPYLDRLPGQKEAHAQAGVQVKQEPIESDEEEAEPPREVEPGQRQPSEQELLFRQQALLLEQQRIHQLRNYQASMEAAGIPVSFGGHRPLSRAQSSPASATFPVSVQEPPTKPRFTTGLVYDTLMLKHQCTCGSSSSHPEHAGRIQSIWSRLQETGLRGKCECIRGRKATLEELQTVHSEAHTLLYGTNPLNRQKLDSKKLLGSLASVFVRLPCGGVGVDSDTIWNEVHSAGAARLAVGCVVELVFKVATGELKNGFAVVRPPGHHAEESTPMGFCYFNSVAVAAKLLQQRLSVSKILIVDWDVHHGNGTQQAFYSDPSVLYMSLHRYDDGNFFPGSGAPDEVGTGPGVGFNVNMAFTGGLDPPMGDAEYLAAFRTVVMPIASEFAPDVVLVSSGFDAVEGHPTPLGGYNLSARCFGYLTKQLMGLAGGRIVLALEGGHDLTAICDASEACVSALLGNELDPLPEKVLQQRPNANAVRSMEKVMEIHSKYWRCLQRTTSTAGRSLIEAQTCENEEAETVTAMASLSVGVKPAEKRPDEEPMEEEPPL
Sequence of Keap1/Nrf2 (Homo sapiens) (Q14145 whole entry, looked up): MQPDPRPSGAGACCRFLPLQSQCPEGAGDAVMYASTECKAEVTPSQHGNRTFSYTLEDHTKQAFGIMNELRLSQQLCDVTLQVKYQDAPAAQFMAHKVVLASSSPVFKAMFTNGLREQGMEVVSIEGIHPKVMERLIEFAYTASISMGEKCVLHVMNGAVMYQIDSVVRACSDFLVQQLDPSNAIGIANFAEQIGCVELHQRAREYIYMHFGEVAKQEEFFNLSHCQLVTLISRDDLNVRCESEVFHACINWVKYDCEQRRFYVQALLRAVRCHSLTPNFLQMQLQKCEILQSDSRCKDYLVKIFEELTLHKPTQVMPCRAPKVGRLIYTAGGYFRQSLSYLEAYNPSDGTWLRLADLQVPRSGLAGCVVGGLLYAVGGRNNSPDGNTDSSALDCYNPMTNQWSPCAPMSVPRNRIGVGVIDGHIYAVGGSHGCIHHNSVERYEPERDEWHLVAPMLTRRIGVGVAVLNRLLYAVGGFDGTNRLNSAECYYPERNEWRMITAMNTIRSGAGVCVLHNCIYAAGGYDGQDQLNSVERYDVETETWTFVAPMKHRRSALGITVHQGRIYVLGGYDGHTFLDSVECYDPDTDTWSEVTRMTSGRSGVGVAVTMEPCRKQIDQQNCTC
Sequence of Keap1/Nrf2 (Homo sapiens) (Q16236 whole entry, looked up): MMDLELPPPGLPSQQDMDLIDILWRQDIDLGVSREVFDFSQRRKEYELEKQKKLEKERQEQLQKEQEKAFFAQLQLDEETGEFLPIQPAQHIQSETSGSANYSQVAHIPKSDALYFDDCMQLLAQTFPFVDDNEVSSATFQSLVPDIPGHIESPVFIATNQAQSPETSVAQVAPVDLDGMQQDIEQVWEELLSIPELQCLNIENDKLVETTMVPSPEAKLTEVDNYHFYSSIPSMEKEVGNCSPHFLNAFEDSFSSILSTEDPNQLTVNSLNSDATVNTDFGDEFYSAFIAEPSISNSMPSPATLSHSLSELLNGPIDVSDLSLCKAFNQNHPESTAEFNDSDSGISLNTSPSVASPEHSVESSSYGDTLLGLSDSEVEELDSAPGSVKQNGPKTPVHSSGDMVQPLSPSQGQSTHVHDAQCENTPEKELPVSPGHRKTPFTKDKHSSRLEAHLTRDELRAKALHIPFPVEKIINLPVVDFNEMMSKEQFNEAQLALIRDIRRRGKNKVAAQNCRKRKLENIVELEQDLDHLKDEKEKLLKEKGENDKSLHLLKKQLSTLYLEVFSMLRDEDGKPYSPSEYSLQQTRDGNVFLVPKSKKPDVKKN

O=C(NO)c1cccc2[nH]c(C#Cc3cccc(C(F)(F)F)c3)cc12
IC50 (Histone deacetylase 4): > 100 µM | IC50 (MOLM-13): ≤ 10 µM | IC50 (OCI-AML-3): ≤ 10 µM | Activity (U-937 [1]): Active | Activity (OCI-AML2 [2]): Active | Activity [3]: ~20% | Activity (U-937 [4]): Active | Activity (OCI-AML2 [5]): Active | Activity (U-937 [6]): Active | Activity (U-937 [7]): Active | Activity (U-937 [8]): Active | Activity (U-937 [9]): Active | Activity (U-937 [10]): Dose-dependent-effect | Activity (OCI-AML2 [11]): Dose-dependent-effect | Activity (U-937 [12]): inactive | Activity (OCI-AML2 [13]): inactive | Activity (OCI-AML2 [14]): inactive | Activity (U-937 [15]): Active | Activity (OCI-AML2 [16]): Active | Activity [17]: Active | Activity [18]: Active | Activity [19]: Active | Activity [20]: Active | Activity (U-937 [21]): Active | Activity (OCI-AML2 [22]): Active | Activity [23]: Active | Activity (U-937 [24]): inactive | Activity [25]: inactive | half-life [26]: 0.82 h | Cmax [27]: 2920 ng/mL | MRT inf [28]: 1.27 h | MRT inf [29]: 6.03 h | Activity [30]: 11.2% | Activity (MLL-AF9 [31]): Active | Activity (MLL-AF9 [32]): Active | Activity [33]: Non-toxic | Activity [34]: Non-toxic
